US20230346735A1, “Nutritional Composition Comprising Carnitine and Method for Treating or Preventing an Infection in a Mammal” (priority 2020, published 2023)

Key:
ACE-2 = assay type: in vivo, rat
Method: Groups 1 and 2 were not subjected to an exercise routine. Groups 3-8 were subjected to an exercise regimen consisting of a week training period with an incremental exercise capacity described below. After the week training period the exercise regimen followed was each rat in Groups 3-8 were subjected to 6 weeks of running at 25 m/min during 45 min every day. […] These correspond to 0, 250, 500, 1000, 2000 and 4000 mg per day for humans, respectively.
After the 6-week exercise regimen was completed, muscle, lung, plasma and liver tissue samples were taken from these rats. The ACE-2 analysis of the tissue samples are subjected to the following test.
To determine the protein accumulation in the liver, muscle and lung samples, a Western Blotting test was used. Each of the tissue samples of the same group were pooled, homogenized, and sonicated in lysis buffer supplemented with 1X protease and phosphatase inhibitor cocktail (#5872, Cell Signaling). Total protein content was detected with Qubit 2.0 Fluorometer according to the manufacturer’s protocol (Invitrogen, Life Technologies Corporation, Carlsbad, CA, USA). Equal amounts of protein (20 µg) were size-fractionated using any-kD Mini-Protean TGX gel electrophoresis and then transferred to a nitrocellulose membrane using the Trans-Blot Turbo Transfer System (Bio-Rad, Life Sciences Research). Thereafter, membranes were blocked in 5% nonfat milk in Tris-buffered saline (TBS) containing 0.1% Tween (TBS-T; blocking solution) for 1 h at room temperature, washed in TBS-T, and incubated overnight with ACE-2 (Abcam, Cambridge, UK). The following day, membranes were washed with TBS-T and then incubated with horseradish peroxidase-conjugated goat anti-rabbit (Abcam, Cambridge, UK) or goat anti-mouse (Abcam, Cambridge, UK) secondary antibody (diluted 1:1000) for 1 h. Individual blots were performed at least three times. Protein loading was controlled by stripping and re-probing the nitrocellulose membrane with an anti-β-actin antibody (Abcam, Cambridge, UK). Protein levels were analyzed densitometrically using an image analysis system (Image J; National Institute of Health, Bethesda, MD, USA), corrected with values determined on β-actin blots and expressed as relative values compared with the control group.
To determine the mRNA expression levels of ACE-2 in the liver, lung and muscle samples a total RNA extraction and specific mRNA quantification was conducted by reverse transcription-polymerase chain reaction (RT-qPCR). Gene expressions were done by quantitative polymerase chain reaction (qPCR). […]

TMPRSS2 [1] = test: TMPRSS2 protein and mRNA in rat tissue samples; assay type: in vivo; settings: exercised rats
Description: (§1) After a week of the adaptation period, the rats were divided into eight equal groups containing seven rats each. The initial body weights of the rats were similar in all the groups (214.53 grams ± 4.67; P > 0.05).
(§2) Groups 1 and 2 were not subjected to an exercise routine. Groups 3-8 were subjected to an exercise regimen consisting of a week training period with an incremental exercise capacity described below. After the week training period the exercise regimen followed was each rat in Groups 3-8 were subjected to 6 weeks of running at 25 m/min during 45 min […]. […] These correspond to 0, 250, 500, 1000, 2000 and 4000 mg per day for humans, respectively.
(§3) To determine the protein accumulation in the liver, muscle and lung samples, a Western Blotting test was used. Each of the tissue samples of the same group were pooled, homogenized, and sonicated in lysis buffer supplemented with 1X protease and phosphatase inhibitor cocktail (#5872, Cell Signaling). Total protein content was detected with Qubit 2.0 Fluorometer according to the manufacturer’s protocol (Invitrogen, Life Technologies Corporation, Carlsbad, CA, USA). […] Protein levels were analyzed densitometrically using an image analysis system (Image J; National Institute of Health, Bethesda, MD, USA), corrected with values determined on β-actin blots and expressed as relative values compared with the control group. […]

TMPRSS2 [2] = test: Rat plasma serum ELISA, TMPRSS2; assay type: in vivo; settings: exercised rats, FIG. 5D
TMPRSS2 [3] = test: Human study, serum ELISA, TMPRSS2; assay type: in vivo; settings: 2 g daily, 5 weeks, 48 hours after exercise challenge, versus placebo
Method: (§4) A human study was run with a total of 80 healthy male and female subjects ranging from 21 to 65 years of age, who were active (i.e. 30 minutes per day of moderate activity, 3 days per week) are randomized into two groups. […] Seventy-three subjects completed the trial and biomarker data were analyzed from the sera of the 73 completers. Sera were collected for analysis of C-Reactive Protein (CRP), ACE 1, ACE 2, TMPRSS 2, the Tumor Necrosis Factor alpha (TNF-alpha), and Furin at baseline in the beginning of the trial, at week 5 and 48 hr after an exercise challenge as described (Clinicaltrials.gov NCT04420377). The exercise challenge serves as surrogate to the inflammation stimulus.
(§5) To obtain human sera, venous blood was extracted by venipuncture of the antecubital vein using a 21-gauge syringe and collected into a 10 mL EDTA vacutainer tube (BD Vacutainer®, Becton, Dickinson and Company, Franklin Lakes, NJ) by a certified phlebotomist. […] Human ACE-1, ACE-2, TMPRSS2, Furin, CRP and TNF-alpha protein levels were assessed using commercially available ELISA kits, according the manufacturer recommendations, ACE-1 (R&D systems Inc., Minneapolis, MN, USA), ACE-2 (RayBiotech inc., Peachtree Corners, GA), TMPRSS2 (Novus Biologicals, Littleton, CO), CRP (R&D Systems Inc., Minneapolis, MN), TNF-alpha (Novus Biologicals, Littleton, CO), and Furin (Sigma Aldrich, St. Louis, MO). […]

Furin [4] = test: Furin protein and mRNA in rat tissue samples; assay type: in vivo; settings: exercised rats
Description: as §1, §2, §3

Furin [5] = test: Human study, serum ELISA, Furin; assay type: in vivo; settings: 2 g daily, 5 weeks, 48 hours after exercise challenge, versus placebo
Method: as §4, §5

[6] = tissues, versus exercise control

`C[N+](C)(C)C[C@H](O)CC(=O)[O-]` [L-carnitine] was tested, and the “dose of maximum effect on ACE-2, TMPRSS2 and Furin levels” value (ACE-2; exercised rats, oral, 6 weeks) was 200 mg/kg, the “ACE-2 mRNA levels” value (ACE-2; exercised rats, tissues, versus exercise control) was “dose-dependent decrease” and the ACE-2 protein level (ACE-2; exercised rats, western blotting) was “return to the baseline control”. For the same molecule, the ACE-2 levels (ACE-2; rats without exercise (inflammation), 200 mg/kg) was “does not affect these receptors”, the “TMPRSS2 mRNA levels” value (TMPRSS2 [1]; [6]) was “dose-dependent decrease” and the TMPRSS2 protein level (TMPRSS2 [1]; western blotting) was “return to the baseline control”. The “serum TMPRSS2” value (TMPRSS2 [2]) was “controlling TMPRSS2”, the TMPRSS2 serum levels (TMPRSS2 [3]) was “significant decrease” and the “Furin mRNA levels” value (Furin [4]; [6]) was “dose-dependent decrease”. For the same molecule, the Furin protein level (Furin [4]; western blotting) was “return to the baseline control” and the Furin serum levels (Furin [5]) was “significant decrease”.
